Literature values in US5370879A, “Formulations and their use in the treatment of neurological diseases” (Elan Corporation, plc, priority 1990, dated 1994).

How the values were obtained:
[1] = system: MS patients; conditions: orally in multiple daily doses
[2] = system: potassium ion flow in nerve impulse transmission
[3] = system: MS patients
[4] = system: patients with Alzheimer's disease
[5] = orally in multiple daily doses over 2-5 days

Row | SMILES | specific neurological deficits [1] | visual evoked response latencies [1] | conduction in blocked demyelinated nerves [2] | potassium ion flow in nerve impulse transmission [2] | conduction of nerve impulses [3] | symptoms in MS patients [3] | improvements noted in clinical trials [3, 5] | side effects [3, 5] | mental functions [4]
1 | Nc1ccncc1N [3,4-DAP, 3,4-Di-aminopyridine] | improve specific neurological deficits | improve | – | – | – | – | – | – | –
2 | Nc1ccncc1 [Example 4-AP, 4-Aminopyridine] | – | – | effective in restoring conduction in blocked demyelinated nerves | slow the potassium ion flow | improve the conduction of nerve impulses | alleviating symptoms in MS patients | mild to marked improvements | minimal side effects | improve the mental functions
